A short description of the data set: Partition coefficient, log P of the compound. Type of data set: physicochemical. The settings on record: octanol/water.
As for `CCOC(=O)C1(C)C(CC)CC=[N+]1[O-]` (mixture of isomers), the logP was 1.34.

Compound `CCOC(=O)[C@]1(C)C[C@H](CC)C=[N+]1[O-]` (relative stereo) had a logP of 1.38. Compound `CCOC(=O)[C@]1(C)C[C@@H](CC)C=[N+]1[O-]` (relative stereo) returned a log partition coefficient (logP) of 1.67.

Regarding `CCOC(=O)C1(CC)C(C)CC=[N+]1[O-]` (mixture of isomers), the logP was 1.07. For the compound `CCOC(=O)[C@@]1(CC)C[C@@H](C)C=[N+]1[O-]` (relative stereo), the logP came out at 1.34. In turn, `CCOC(=O)[C@@]1(CC)C[C@H](C)C=[N+]1[O-]` (relative stereo) came in with a logP of 1.48. `CCOC(=O)C1(C)CCC=[N+]1[O-]` (configuration not stated) had a log partition coefficient (logP) of 0.15.

Source of the values: ChEMBL document CHEMBL1143022, “Free radical trapping properties of several ethyl-substituted derivatives of 5-ethoxycarbonyl-5-methyl-1-pyrroline N-oxide (EMPO)” (Bioorg Med Chem, 2007).
